The values below come from publication PMC10725991, “Kaempferol is a novel antiviral agent against channel catfish virus infection through blocking viral attachment and penetration in vitro” (Frontiers in Veterinary Science, 2023).

Experiment [1] has as its system CCV in CCO cells. Description: Time-of-drug-addition assay, RT-qPCR. The class given is cell-based, Channel catfish virus (CCV, Ictalurid herpesvirus 1). As to the method: The CCO cells seeded in 24-well plates were infected with CCV under five different treatment conditions: (i) Control: CCO cells cultured in the maintenance DMEM media were infected by CCV for 1 h. (ii) Pre-treatment: CCO cells were pre-treated with 15 μg/mL of kaempferol for 2 h before CCV infection. (iii) Virus treatment: CCV was pre-incubated with kaempferol at 37°C for 2 h before being added to CCO cells. (iv) Virus and kaempferol co-treatment: CCO cells were treated in media containing both kaempferol and CCV at 28°C for 1 h. (v) Post-treatment: CCO cells were incubated with CCV at 28°C for 1 h. After that, kaempferol (15 μg/mL) was supplemented at 1, 2, 4, 8, 12, and 24 h post-infection. In all treatment conditions, the unabsorbed CCV was washed off twice by PBS after 1 h of adsortion. The samples were collected to test the CCV gene expression by the RT-qPCR at 24 h and 36 h after the corresponding treatments.
(§1) For RT-qPCR, the total RNA was isolated from CCV-infected cells using RnaExTM (Trizol)^a reagent (GENERAY, China), and reversed transcribed applying a HiScript III RT SuperMix with gDNA wiper (Vazyme, China) following the manufacturer’s instructions. Quantitative PCR was performed with a LightCycler 96 Real-Time PCR Detection System (Roche, USA) using ChamQ Universal SYBR qPCR Master Mix (Vazyme, China) with the following cycle conditions: 95°C for 30 s, followed by 40 cycles of 95°C for 10 s and 60°C for 30 s. To assess the specificity of each amplicon, melt curve analysis was also performed at the end of each thermal profile. The primers used for PCR are listed in Supplementary Table S2. Each individual sample was run in triplicate wells. Fold changes of the selected gene vs 18 s (internal reference) were calculated by the 2^−△△Ct method.
Figure 5 Time of drug-addition assay of kaempferol in CCV inhibition. (A) The schematic diagram of the experimental settings. The CCO cells were infected with CCV for 1 h followed by the indicated kaempferol treatments. Cell lysates at indicated time post-infection were subjected to RT-qPCR. (B,C) The relative expression levels of the CCV ORF 39 and ORF 59 genes with cell-treatment, virus-treatment and co-treatment at 24 h and 36 h post-infection. (D) The relative expression levels of the CCV ORF 39 and ORF 59 genes with post-treatment at 36 h post-infection. The selected gene level was normalized to 18 s (internal reference) using the 2^− ΔΔCT method. Data represent mean ± SD. The p value was determined by *p < 0.05, **p < 0.01.
On the technique in general: In qPCR the cycle at which signal appears reflects the starting amount.

For experiment [2], the system named is CCV (strain VR-665) in CCO cells. Description: Antiviral activity screening assay, CCV gene expression by RT-qPCR. The class given is cell-based, Channel catfish virus (CCV, Ictalurid herpesvirus 1). The note with it: maximum safe concentration, added 1 h after CCV infection, 36 h. On the procedure:
To test the anti-CCV effect of tested compounds in the preliminary screening, CCO cells were seeded in 24-well plates and cultured to reach approximately 90% confluence in each well at 28°C. Subsequently, the cells were infected with the CCV at 10^3 TCID50/ml at 28°C for 1 h. After that, the cell culture medium was replaced using an isopycnic DMEM medium containing the maximum safe concentration of indicated compounds. CCV-infected cells treated with DMSO served as a negative control, whereas CCV-infected cells treated with acyclovir (2.5 μg/mL) served as a positive control ([33]). […] According to the percentage inhibition results, we further detected the antiviral activity of kaempferol at maximum safe concentration by viral cytopathic effects (CPE) and western blot analysis.
as §1, with “To assess the specificity of each amplicon, melt curve analysis was also performed at the end of each thermal profile. The primers used for PCR are listed in Supplementary Table S2. Each individual sample was run in triplicate wells.” left out, “method. […]” for “method.”

Experiment [3] concerns CCV in CCO cells. Description: Liquid plaque assay. Type of experiment: cell-based, Channel catfish virus (CCV. The note with it: Ictalurid herpesvirus 1; kaempferol 10 μg/mL, 36 h; read-out: inhibition of viral plaque formation. On the procedure: For analyzing the CPE reduction of viral infected CCO cells by kaempferol, the CCO cells were seeded in 24-well plates and cultured overnight at 28°C before infection. Then, the monolayer cells were infected with CCV at 10^3 TCID50/ml for 1 h. Subsequently, the infected cells were treated with kaempferol at different concentrations (2.5, 5, 7.5, 10, 12.5, and 15 μg/mL), respectively. The CCO cells without CCV and drug treatment were set as mock control whereas the virus-infected cells without compound treatment were set as CCV control. Each sample was directly observed and photographed under an inverted microscope at 24 and 36 h post-infection. Meanwhile, the plaque assay was performed as described in previous studies with slight modifications ([34]). Briefly, confluent cells in 24-well plates were infected with CCV (10^3 TCID50/ml) for 1 h. Subsequently, the inoculums were removed and the kaempferol with different concentrations (2.5, 5, 7.5, 10, 12.5, and 15 μg/mL) was added and remained throughout the experiment. The cells were fixed and stained with 1% crystal violet and then photographed at 36 h post-infection.
Figure 4 CPE and plaque reduction in CCO cells treated with kaempferol. (A) The cells were incubated with different concentrations of kaempferol (2.5, 5.0, 7.5, 10, 12.5 and 15.0 μg/mL) after CCV infection 1 h. […]

The inhibition is the drop in the measured response relative to a control, in per cent. On to `O=c1c(O)c(-c2ccc(O)cc2)oc2cc(O)cc(O)c12` [Kaempferol], for which, in the experiment with CCV in CCO cells [1] (15 μg/mL for 2 h before CCV infection, 24 h post CCV infection), the “intracellular CCV mRNA level, pre-treatment of cells” value is “effectively decreased”. Also, the “intracellular CCV mRNA level, post-treatment” value in the experiment with CCV in CCO cells [1] (15 μg/mL kaempferol supplemented 1-24 h post-infection, read at 36 h) is “significantly reduced”. For the same molecule, in the experiment on CCV in CCO cells [1] (15 μg/mL kaempferol with CCV at 28°C for 1 h), the “viral ORF 39 and ORF 59 mRNA levels, co-treatment” value was “failed to decrease”. Further, the “decrease of viral mRNA level, kaempferol supplemented at 24 h post-infection” value with CCV in CCO cells [1] (15 μg/mL, post-treatment, read at 36 h post-infection) was “approximately 40%”. Besides, in the experiment on CCV in CCO cells [1] (CCV pre-incubated with kaempferol 2 h before addition to cells), the “intracellular CCV mRNA level, virus-treatment” value is given as “significantly reduced”. Besides, the “inhibitory rate of CCV ORF 39 and 59 genes” value in experiment [2] turned out to be 99.9%. Besides, in the experiment on CCV in CCO cells [3], the inhibition at 10 µg/mL is ~100%.
